Measured values as given in US11787781B2, “Inhibiting ataxia telangiectasia and RAD3-related protein (ATR)” (Celator Pharmaceuticals, Inc., priority 2016, dated 2023).

What was measured:
pKa = type: physicochemical; conditions: method not stated
[1] = system: total and phospho-ATR (S428), phospho-CHK1 (S317 and S345) in DMS-114 cells; test: Western blot of total and phospho-ATR, phospho-CHK1 in DMS-114 cells; type: cell-based
Experimental: Whole cell protein lysates were generated after 1, 3, 6 and 24 hours using a 2% SDS containing cell lysis buffer and stored at −80° C. until all samples were collected and run together at the same time for the WesternBlot analysis. The following proteins and phosphoproteins of interest were detected by antibodies purchased from Cell Signaling Technology (see methods and materials part below): total and phospho-ATR (S428), phospho-CHK1 (S317 and S345), γH2AX, beta-actin.
All target and phospho-specific antibodies were purchased from Cell Signaling and/or Epitomics and were used at 1:1000 dilutions. A list of all antibodies is available in Table 6. Standard antibody based Western blot and immunohistochemistry protocols were used. Briefly, 2% SDS based cell lysis buffer was used to collect whole cell lysate for Western Blotting. Secondary antibodies and staining protocols were purchased and followed regarding LiCor Biosciences and/or BD Bioscience.
Cells were grown and treated in a 6 cm dish scale. To harvest cells, medium was removed and quickly replaced by ice cold PBS. PBS was then replaced with 250 μL of 2% SDS lysis buffer. After five minutes of incubation, the lysed cells were scraped off and loaded onto a cell lysate homogenizer microcentrifuge spin-column (QIAshredder, Qiagen, Cat.-Nr. 79656). The filtrate was then loaded onto a 0.2 μm centrifugal filter column (Nanosep MF 0.2_m, Pall, Cat.-Nr. ODM02C34). The lysates were then stored at −80° C.

[2] = system: panel of lung cancer cell lines; test: […]-GLO cell viability, free drug monotherapy and combination screening; type: cell-based
Experimental: In vitro efficacy study was done using […]-GLO Luminescent Cell Viability Assay (Promega) with Corning Cat #3707 384 well White Clear bottom plates. Cells were plated (1000 cells/well) in 384 well format and allowed to incubate at 37° C. for 24 hours. Monotherapy drugs were added at the 24 hr time point and then allowed to incubate at 37° C. for 24 hours. At the 48 hr time point the drugs in media were removed, washed with PBS, and fresh media was added. Cells were then allowed to incubate at 37° C. for 72 hours. […]
At the 120 hr time point media was removed and […]-GLO (CTG) reagent was added (1:1 ratio with PBS). Plates were read using a luminometer (Envision Multilabel reader). […]
Data was analyzed using an in-house algorithm developed using Matlab (Mathworks, Natick Mass.). […]
Data quality control was performed to ensure that the concentration range is optimal according to these rules: (1) if the lowest concentration kills more than 70% of the cells the concentration range is deemed too potent (2) if the highest concentration kills less than 30% of the cells, the concentration range is deemed low or the cell line is too resistant. Additionally, goodness of the fit was evaluated using R^2 and R^2<0.9 is flagged as a bad fit.

[3] = Loading of ATR inhibitors into TEA-SOS liposomes and liposome characterization; type: physicochemical
Experimental: Sodium sucrose octasulfate (equivalent weight 144.8) is a sodium salt of sucrose derivate in which all hydroxyl groups have formed sulfuric acid esters. Sixty gram of sucrose octasulfate (SOS) sodium salt were dissolved in 150 ml of di water, heated with shaking (swirling) of a 50° C. water bath. The solution was passed through a column packed with sulfonated polystyrene divinylbenzene copolymer cation exchange resin beads (Dowex 50Wx8-100-200 mesh, Dow Chemical Co.). […] The eluent was monitored using a conductivity detector. The SOS fraction was collected corresponding to conductivity peak and immediately titrated with neat triethylamine (TEA) solution to pH 6-6.5. The solution was analyzed for residual sodium by potentiometry using a sodium-sensitive electrode and for SOS concentration using a refractometer. The solution having residual sodium less than 0.25% was diluted with di water to final SOS concentration 1.1 M and then sterile-filtered using Millipore 0.22 μm Steri-Top filter.
Cholesterol (Chol) was purchased from Avanti Polar Lipids, Alabaster, Ala., USA, hydrogenated soy phosphocholine (HSPC) and methoxy-poly(ethylene glycol)-1,2-distearoyl-sn-glyceryl (PEG2000-DSG) were obtained from Lipoid GmbH, Ludwigshafen, Germany.
Chol, HSPC and PEG2000-DSG were co-dissolved in 100% ethanol (200-proof, Sigma cat #: 459828) at a molar ratio of 3:2:0.15 at 65° C. The solution of TEA-SOS (10 times the volume of added ethanol) was mixed with the lipid solution at 60-65° C. and stirred at this temperature until a homogeneous milky suspension of multilamellar vesicles was formed. This suspension was extruded 3 times through 5 stacked polycarbonate track-etched filters (Corning Nuclepore) with the pore size of 100 nm using argon pressure extruder (Lipex Biomembranes) at 60-65° C., and resulting unilamellar liposomes were quickly chilled in ice and then stored at 4-6° C. before use. Concentration of phospholipids was measured by phosphate assay and particle diameter was recorded on a Malvern Nanosizer.
Prior to drug loading, the TEA-SOS gradient was created by removing excess of un-trapped TEA-SOS using gel-chromatography (Sepharose CL-4B, Pharmacia). Osmolarity of liposomes was balanced using 50% dextrose solution. Final dextrose concentration was 15%.
ATR inhibitors were dissolved in 15% dextrose solutions in di water by titration with 1 M HCl and heating at 45° C. and then filtered with 0.2 micron NALGENE 13 mm Syringe Filters. Drug concentration in the solution was detected by HPLC. […]
The liposome-drug mixture was incubated with occasional agitation for 30 minutes at 65° C. The incubation mixture was quickly cooled down and incubated for 10 minutes at 0° C., then allowed to attain ambient temperature. Un-encapsulated drug was removed by gel chromatography on Sephadex G-25 (Amersham Pharmacia) eluted with HBS-6.5 buffer (5 mM 2-(4-(2-hydroxyethyl)-piperazino)-ethylsulfonic acid (HEPES), 144 mM NaCl, pH 6.5). Liposome fractions eluted in the void volume were combined, sterilized by 0.2 micron filtration, and stored at 4-6° C. before use. The liposomes were characterized by lipid concentration, drug concentration, and particle size (Table 2).

## CN(C)CCC1CCN(CCS(=O)(=O)c2ccc(-c3cnc(N)c(C(=O)Nc4ccccc4)n3)cc2)CC1 [Compound 5, 3-amino-6-(4-((2-(4-(2-(dimethylamino)ethyl)piperidin-1-yl)ethyl)sulfonyl)phenyl)-N-phenylpyrazine-2-carboxamide]
pKa
  pKa: 10
[1]; ATR inhibitor 1 μM added to Gemcitabine 16 nM
  phosphorylation signal of CHK1 (S317 and S345) induced by Gemcitabine: abrogates the phosphorylation signal of CHK1
[1]; ATR inhibitor 1 μM, alone or with Gemcitabine 16 nM, up to 24 hrs
  total and phospho-ATR signal: strongly reduced
[2]; 1 μg/ml ATR inhibitor with Carboplatin, Gemcitabine or Compound B
  potency (IC50) of chemotherapeutic agent combined with ATR inhibitor, vs Compound 6: more potent
[2]; monotherapy, 24 h exposure
  monotherapy cell kill IC50, folds lower than Compound 6: ~3 folds
[3]; TEA-SOS liposomes, Compound 1 at ratio before loading 379
  Loading efficiency (%): 84 ± 8%
[3]; TEA-SOS liposomes, input ratio before loading (Compound 1: 379)
  Drug/lipid ratio after loading: 619 ± 110
[3]; liposomes loaded with the ATR inhibitor
  Liposome size, (mean ± SD) nm: 120 ± 29 nm
